Legend:
Assay type in all cases: cell-based
Mycoplasma granularum = assay: MIC, series dilution test, PPLO-medium (Table 1); details: Acholeplasma granularum, 37°C, 18, 24 and 48 hours, read-out: Minimum inhibitory concentration (MIC)
Procedure: (§1) The mycoplasmae were tested in the series dilution test (PPLO-medium) at 37°C, with observations after 18, 24 and 48 hours.

Mycoplasma bovirhinis = assay: MIC, series dilution test, PPLO-medium (Table 1); details: 37°C, 18, 24 and 48 hours, read-out: Minimum inhibitory concentration (MIC)
Procedure: as §1

Mycoplasma gallisepticum = assay: MIC, series dilution test, PPLO-medium (Table 1); details: Mycoplasmoides gallisepticum, 37°C, 18, 24 and 48 hours, read-out: Minimum inhibitory concentration (MIC)
Procedure: as §1

Pseudomonas aeruginosa B [1] = assay: MIC, plate test (Table 1); details: 37°C, 24 hours, read-out: Minimum inhibitory concentration (MIC)
Procedure: (§2) The minimum inhibitory concentration (MIC) was determined in the plate test on a complete nutrient base of the following composition: 10 g of proteose-peptone, 10 g of veal infusion, 2 g of dextrose, 3 g of sodium chloride, 2 g of disodium phosphate, 1 g of sodium acetate, 0.01 g of adenine sulphate, 0.01 g of guanine hydrochloride, 0.01 g of uracil, 0.01 g. of xantin, 12 g of agar-agar and 1 liter of water.
(§3) The incubation temperature was 37°C and the incubation time was 24 hours.

Klebsiella 8085 = assay: MIC, plate test (Table 1); details: 37°C, 24 hours, read-out: Minimum inhibitory concentration (MIC)
Procedure: as §2, §3

Streptococcus pyogenes = assay: MIC, plate test (Table 1); details: with serum, 37°C, 24 hours, read-out: Minimum inhibitory concentration (MIC)
Procedure: as §2, §3

Escherichia coli C165 = assay: MIC, plate test (Table 1); details: 37°C, 24 hours, read-out: Minimum inhibitory concentration (MIC)
Procedure: as §2, §3

Salmonella species [2] = assay: MIC, plate test (Table 1); details: 37°C, 24 hours, read-out: Minimum inhibitory concentration (MIC)
Procedure: as §2, §3

Escherichia coli A261 = assay: MIC, plate test (Table 1); details: 37°C, 24 hours, read-out: Minimum inhibitory concentration (MIC)
Procedure: as §2, §3

Proteus vulgaris 1017 [3] = assay: MIC, plate test (Table 1); details: 37°C, 24 hours, read-out: Minimum inhibitory concentration (MIC)
Procedure: as §2, §3

Pseudomonas aeruginosa w [4] = assay: MIC, plate test (Table 1); details: 37°C, 24 hours, read-out: Minimum inhibitory concentration (MIC)
Procedure: as §2, §3

[5] = test system: Staphylococcus aureus 133; assay: MIC, plate test (Table 1); details: 37°C, 24 hours, read-out: Minimum inhibitory concentration (MIC)
Procedure: as §2, §3

Klebsiella 63 = assay: MIC, plate test (Table 1); details: 37°C, 24 hours, read-out: Minimum inhibitory concentration (MIC)
Procedure: as §2, §3

[6] = test system: Mycobacterium tuberculosis; assay: MIC, series dilution test, Jenssen egg medium; details: 37°C, read-out: minimum inhibitory concentration
Procedure: The compounds of Examples 12 and 13 show minimum inhibitory concentrations of 32 γ/ml of nutrient medium in the series dilution test, Jenssen egg medium, 37°C, against Mycobacterium tuberculosis.

Klebsiella K 63 = assay: Turbidity test in Mueller-Hinton nutrient solution; details: 100 γ/ml, 24 hours, 37°C
Enterobacter species = assay: Turbidity test in Mueller-Hinton nutrient solution; details: 100 γ/ml, 24 hours, 37°C
Borrelia species = assay: Turbidity test in Mueller-Hinton nutrient solution; details: 100 γ/ml, 24 hours, 37°C
[7] = test system: Neisseria catarrhalis species; assay: Turbidity test in Mueller-Hinton nutrient solution; details: 100 γ/ml, 24 hours, 37°C
Klebsiella K 10 = assay: Turbidity test in Mueller-Hinton nutrient solution; details: 100 γ/ml, 24 hours, 37°C
[8] = test system: Pasteurella pseudotuberculosis; details: 100 γ/ml, 24 hours, 37°C
Shigella species = assay: Turbidity test in Mueller-Hinton nutrient solution; details: 100 γ/ml, 24 hours, 37°C
Procedure: (§4) 100 γ/ml of the compounds according to the invention are dissolved in Mueller-Hinton nutrient solution, with addition of 0.1% of glucose. The nutrient solution contains […] microbes per ml. The mixture is incubated in glass test tubes for 24 hours at 37°C and after this time the degree of turbidity is determined.

Salmonella species [9] = assay: Turbidity test in Mueller-Hinton nutrient solution; details: 100 γ/ml, 24 hours, 37°C
Procedure: as §4

[10] = test system: Corynebacterium pyogenes M; assay: Turbidity test in Mueller-Hinton nutrient solution; details: 100 γ/ml, 24 hours, 37°C
[11] = test system: Proteus indole-positive, species; assay: Turbidity test in Mueller-Hinton nutrient solution; details: 100 γ/ml, 24 hours, 37°C
Clostridium tetani = details: 100 γ/ml, 24 hours, 37°C
Pseudomonas aeruginosa w [12] = assay: Turbidity test in Mueller-Hinton nutrient solution; details: 100 γ/ml, 24 hours, 37°C
Proteus vulgaris 1017 [13] = assay: Turbidity test in Mueller-Hinton nutrient solution; details: 100 γ/ml, 24 hours, 37°C
Bacteroides species = assay: Turbidity test in Mueller-Hinton nutrient solution; details: 100 γ/ml, 24 hours, 37°C
[14] = test system: Diplococcus pneumoniae species; assay: Turbidity test in Mueller-Hinton nutrient solution; details: 100 γ/ml, 24 hours, 37°C
Brucella species = details: 100 γ/ml, 24 hours, 37°C
Escherichia coli C 165 = assay: Turbidity test in Mueller-Hinton nutrient solution; details: 100 γ/ml, 24 hours, 37°C
Serratia species = assay: Turbidity test in Mueller-Hinton nutrient solution; details: 100 γ/ml, 24 hours, 37°C
Escherichia coli 14 = assay: Turbidity test in Mueller-Hinton nutrient solution; details: 100 γ/ml, 24 hours, 37°C
Lactobacillus species = assay: Turbidity test in Mueller-Hinton nutrient solution; details: 100 γ/ml, 24 hours, 37°C
[15] = test system: Haemophilus influenzae 281; assay: Turbidity test in Mueller-Hinton nutrient solution; details: 100 γ/ml, 24 hours, 37°C
[16] = test system: Aeromonas hydrophila species; assay: Turbidity test in Mueller-Hinton nutrient solution; details: 100 γ/ml, 24 hours, 37°C
[17] = test system: Proteus indole-negative, species; assay: Turbidity test in Mueller-Hinton nutrient solution; details: 100 γ/ml, 24 hours, 37°C
Enterococcus species = assay: Turbidity test in Mueller-Hinton nutrient solution; details: 100 γ/ml, 24 hours, 37°C
[18] = test system: Bordetella bronchiseptica; assay: Turbidity test in Mueller-Hinton nutrient solution; details: 100 γ/ml, 24 hours, 37°C
Escherichia coli A 261 = assay: Turbidity test in Mueller-Hinton nutrient solution; details: 100 γ/ml, 24 hours, 37°C
[19] = test system: Staphylococcus aureus 133; assay: Turbidity test in Mueller-Hinton nutrient solution; details: 100 γ/ml, 24 hours, 37°C
[20] = test system: Corynebacterium diphtheriae gravis; assay: Turbidity test in Mueller-Hinton nutrient solution; details: 100 γ/ml, 24 hours, 37°C
Pseudomonas aeruginosa B [21] = assay: Turbidity test in Mueller-Hinton nutrient solution; details: 100 γ/ml, 24 hours, 37°C
Streptococcus pyogenes W = assay: Turbidity test in Mueller-Hinton nutrient solution; details: 100 γ/ml, 24 hours, 37°C
Clostridium botulinium = test system: Clostridium botulinium

CC(=O)Nc1n[n+]([O-])c2ccccc2[n+]1[O-] [Example 2, 3-(N-acetylamino)-benzo-1,2,4-triazine-1,4-di-N-oxide]
8 µg/mL: MIC (Pseudomonas aeruginosa w [4])
1 µg/mL: MIC (Streptococcus pyogenes) | MIC (Salmonella species [2])
< 0.5 µg/mL: MIC (Klebsiella 8085) | MIC (Escherichia coli C165) | MIC (Escherichia coli A261) | MIC (Proteus vulgaris 1017 [3]) | MIC [5] | MIC (Klebsiella 63)
4 µg/mL: MIC (Pseudomonas aeruginosa B [1])
< 0.125 µg/mL: MIC (Mycoplasma granularum) | MIC (Mycoplasma bovirhinis) | MIC (Mycoplasma gallisepticum)

CCC(=O)Nc1n[n+]([O-])c2ccccc2[n+]1[O-] [Example 3, 3-(N-propionylamino)-benzo-1,2,4-triazine-1,4-di-N-oxide]
4 µg/mL: MIC (Escherichia coli C165) | MIC (Salmonella species [2]) | MIC (Escherichia coli A261) | MIC (Klebsiella 63)
128 µg/mL: MIC (Pseudomonas aeruginosa B [1]) | MIC (Streptococcus pyogenes) | MIC (Pseudomonas aeruginosa w [4])
< 0.125 µg/mL: MIC (Mycoplasma granularum) | MIC (Mycoplasma bovirhinis) | MIC (Mycoplasma gallisepticum)
1 µg/mL: MIC (Klebsiella 8085) | MIC (Proteus vulgaris 1017 [3]) | MIC [5]

CC(=O)CC(=O)Nc1n[n+]([O-])c2ccccc2[n+]1[O-] [Example 4, 3-(N-acetoacetylamino)-benzo-1,2,4-triazine-1,4-di-N-oxide]
32 µg/mL: MIC [6]
8 µg/mL: MIC (Streptococcus pyogenes) | MIC (Escherichia coli C165) | MIC (Salmonella species [2]) | MIC (Escherichia coli A261) | MIC (Proteus vulgaris 1017 [3]) | MIC [5]
128 µg/mL: MIC (Pseudomonas aeruginosa B [1]) | MIC (Pseudomonas aeruginosa w [4]) | MIC (Klebsiella 63)
4 µg/mL: MIC (Klebsiella 8085)

CCCCCCCCCCCCCCCCCC(=O)Nc1n[n+]([O-])c2ccccc2[n+]1[O-] [Example 6]
8 µg/mL: MIC (Klebsiella 8085)
32 µg/mL: MIC [6]
128 µg/mL: MIC (Pseudomonas aeruginosa B [1]) | MIC (Streptococcus pyogenes) | MIC (Escherichia coli C165) | MIC (Salmonella species [2]) | MIC (Escherichia coli A261) | MIC (Proteus vulgaris 1017 [3]) | MIC (Pseudomonas aeruginosa w [4]) | MIC [5] | MIC (Klebsiella 63)

CNC(=O)Nc1n[n+]([O-])c2ccccc2[n+]1[O-] [Example 7, 1'-methyl-3'-[1,4-dioxo-benzo-1,2,4-triazin-3-yl]-urea]
4 µg/mL: MIC (Escherichia coli C165) | MIC (Salmonella species [2]) | MIC (Escherichia coli A261)
8 µg/mL: MIC (Klebsiella 63)
128 µg/mL: MIC (Pseudomonas aeruginosa B [1]) | MIC (Pseudomonas aeruginosa w [4])
1 µg/mL: MIC (Klebsiella 8085) | MIC (Streptococcus pyogenes) | MIC (Proteus vulgaris 1017 [3]) | MIC [5]

O=C(NCCO)Nc1n[n+]([O-])c2ccccc2[n+]1[O-] [Example 14, 1'-[1,4-dioxo-benzo-1,2,4-triazin-3-yl]-3'-[β-hydroxy-ethyl]-urea]
remained free of turbidity: turbidity after incubation (Klebsiella K 63) | turbidity after incubation (Enterobacter species) | turbidity after incubation (Borrelia species) | turbidity after incubation [7] | turbidity after incubation (Klebsiella K 10) | turbidity after incubation [8] | turbidity after incubation (Shigella species) | turbidity after incubation (Salmonella species [9]) | turbidity after incubation [10] | turbidity after incubation [11] | turbidity after incubation (Clostridium tetani) | turbidity after incubation (Pseudomonas aeruginosa w [12]) | turbidity after incubation (Proteus vulgaris 1017 [13]) | turbidity after incubation (Bacteroides species) | turbidity after incubation [14] | turbidity after incubation (Brucella species) | turbidity after incubation (Escherichia coli C 165) | turbidity after incubation (Serratia species) | turbidity after incubation (Escherichia coli 14) | turbidity after incubation (Lactobacillus species) | turbidity after incubation [15] | turbidity after incubation [16] | turbidity after incubation [17] | turbidity after incubation (Enterococcus species) | turbidity after incubation [18] | turbidity after incubation (Escherichia coli A 261) | turbidity after incubation [19] | turbidity after incubation [20] | turbidity after incubation (Pseudomonas aeruginosa B [21]) | turbidity after incubation (Streptococcus pyogenes W) | turbidity after incubation (Clostridium botulinium)

From patent publication US3957779A, “Benzo-1,2,4-triazines” (Bayer Aktiengesellschaft, priority 1972, dated 1976)
